Assay results reported in patent US11643428B2, “Therapeutic drug for neurodegenerative disease and application thereof” (SHANGHAI PHARMACEUTICALS HOLDING CO., LTD., priority 2018, dated 2023).

How the values were obtained:
Format in all cases: in vivo, mouse
MPTP mice model [1] = experiment: Striatal dopaminergic nerve fibers, TH western blot, MPTP model; details: PL201+MPTP vs NS+MPTP group, Day 7 after MPTP modeling
Protocol: (§1) The mice were randomly divided into 4 groups: a group in which the mice was administrated with normal saline (NS), a MPTP model group in which the mice was intragastrical administrated with normal saline (NS+MPTP), a group in which the mice was intragastrical administrated with 50 mg of compound PL201 (PL201), and a MPTP model group in which the mice was intragastrical administrated with compound PL201 (PL201+MPTP).
(§2) 11 animals were set in the group in which the mice was administrated with normal saline (NS), 14 animals were set in the MPTP model group in which the mice was intragastrical administrated with normal saline (NS+MPTP), 4 animals were set in the group in which the mice was intragastrically administrated with 50 mg of compound PL201 (PL201), 15 animals were set in the MPTP model group in which the mice was intragastrically administrated with the compound PL201 (PL201+MPTP).
The administration started on the day of animal grouping: mice in the NS and the NS+MPTP group were administrated with normal saline, and mice in the other two groups were administrated with compound PL201 once a day for 7 consecutive days. […]
On Day 7 after MPTP modeling, animals in each group were anesthetized with 10% chloral hydrate. […] The fluorescence signal was detected by Odyssey near-infrared fluorescence scanner and made statistics.

MPTP mice model [2] = experiment: TH immunohistochemistry of substantia nigra and striatum, MPTP model; details: PL201+MPTP vs NS+MPTP group, Day 7 after MPTP modeling
Protocol: as §1, §2
The administration started on the day of animal grouping: mice in the NS and the NS+MPTP group were intragastrically administrated with normal saline, and mice in the other two groups were administrated with compound PL201 once a day for 7 consecutive days. From Day 7, mice in the NS and the PL201 group were intraperitoneally injected with 5 ml/kg normal saline, while mice in the NS+MPTP and the PL201+MPTP group were intraperitoneally injected with 25 mg/kg of MPTP once a day for a total of 5 days. […]

MPTP mice model [3] = experiment: Pole-climbing test in MPTP model; details: PL201+MPTP vs NS+MPTP group, 50 mg intragastrically once a day, day 3 of the experiment
Protocol: as §1, with “([…]),” for “(NS+MPTP),”
as §2, with “(PL201+MPTP). […]” for “(PL201+MPTP).”
On Day 3 of the experiment, the pole-climbing test of mice was carried out to evaluate the motor coordination ability of the mice. […] The time taken by the mice to turn from head upwards to head downwards completely was recorded as the time to turn around, and the time taken by the mice from moving downwards to all limbs reaching the bottom of the pole was recorded as the time to climb down. Time exceeded 30 seconds was recorded as 30 seconds. […]

[4] = system: APP/PS1 transgenic mice (AD mice); experiment: Morris water maze test; details: 10 mg/kg intragastrically daily, 90 days, vs model group
Protocol: Twenty 5-6 months aged, male APP/PS1 transgenic mice (AD mice) were selected, and were divided into a model group and a polysaccharide administration group randomly by random number table method. PL201 was intragastrically administered daily (10 mg/kg mouse body weight), meanwhile, 10 non-transgenic mice were used as a negative control group (without PL201 administration). After 90 days of consecutive administration, Morris water maze behavior test was used to detect the effects of PL201 on learning and cognitive function of APP/PS1 mice.
Classic Morris water maze test procedure was used in the test, which includes two parts: i.e., the place navigation task and the spatial probe task. The test lasted for 7 days, and the spatial probe task was added at Day 4 and Day 7.
It can be seen from the test results in FIG. 1 that the escape latency of all the three groups of animals after 3 days of training was shortened in the place navigation task, illustrating that mice in each group can successfully complete the spatial learning task of the water maze. The escape latency was used as a test indicator.

COc1cc(/C=C/C(=O)OC2OC(C)C(O)C(O)C2O)ccc1O [PL201, (α-L-rhamnopyranosyl) ferulic acid ester]
level of striatal dopaminergic nerve fibers (TH western blot) (MPTP mice model [1]): significantly increased | level of striatal dopaminergic nerve fibers (TH immunohistochemistry, mean optical density) (MPTP mice model [2]): significantly increased | number of dopaminergic neurons in substantia nigra (TH positive cells) (MPTP mice model [2]): significantly increased | time to climb down (MPTP mice model [3]): reduced | time to turn around (MPTP mice model [3]): reduced | learning and memory abilities (escape latency) [4]: significantly improved
